One test addresses T1, thromboxane synthetase (Homo sapiens, UniProt P24557).
T1 construct: crude microsomal preparation of thromboxane synthetase from lysed human platelets; from tissue; host or cells: human platelets (lysed, crude microsomal preparation)
T1 sequence (P24557 1-533): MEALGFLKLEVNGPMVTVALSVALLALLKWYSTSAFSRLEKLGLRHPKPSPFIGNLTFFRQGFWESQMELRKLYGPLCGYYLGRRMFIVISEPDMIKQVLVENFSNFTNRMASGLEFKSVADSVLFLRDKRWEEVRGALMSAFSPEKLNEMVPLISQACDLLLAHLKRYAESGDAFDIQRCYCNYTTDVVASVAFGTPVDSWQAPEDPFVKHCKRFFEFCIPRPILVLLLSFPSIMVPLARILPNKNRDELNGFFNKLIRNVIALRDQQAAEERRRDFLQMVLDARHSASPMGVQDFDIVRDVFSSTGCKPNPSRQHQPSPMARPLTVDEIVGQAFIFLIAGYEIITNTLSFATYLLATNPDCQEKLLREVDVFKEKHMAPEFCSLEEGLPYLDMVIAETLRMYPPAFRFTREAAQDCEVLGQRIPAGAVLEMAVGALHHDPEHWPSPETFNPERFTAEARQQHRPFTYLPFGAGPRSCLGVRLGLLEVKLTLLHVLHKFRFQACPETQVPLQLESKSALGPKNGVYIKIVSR
Nature of the test: in vitro inhibition of thromboxane synthetase (14C-arachidonic acid, TxB2/PGF2α+β ratio). Type of test: biochemical. The settings on record: 30 minutes incubation. How it is done:
Res. Comm. 74, 1432 (1977); the testing procedure is as follows:
^14 C-Arachiodonic acid is incubated with an exzyme consisting of solubilized and partially purified prostaglandin cyclo-oxygenase from sheep seminal vesicles and a crude microsomal preparation of thromboxane synthetase from lysed human platelets. The test compound (dissolved in buffer, or if necessary, in a small amount of ethanol) is added to the incubation medium. At the end of the incubation period (30 minutes), Prostaglandin E2 (PGE2) is reduced to a mixture of Prostaglandin F2 α and F2 β (PGF2α+β) by addition of sodium borohydride. The radioactive products and excess substrate are extracted into ethyl acetate; the extract is evaporated to dryness; the residue is dissolved in acetone, spotted on thin-layer plates and chromatographed in the solvent system toluene: acetone: glacial acetic acid (100 volumes: 100 volumes: 3 volumes). The radioactive zones are located; those corresponding to Thromboxane B2 (TxB2) and PGF2 α+β are transferred to liquid scintillation vials and counted. The ratio of counts for TxB2 /PGF2 α+β is calculated for each concentration of test compound and IC50 values are determined graphically as the concentration of test compound at which the ratio of T×B2 /[…] is reduced to 50% of the control value.

The test system of another test is bleeding time. Nature of the test: prolongation of bleeding time in the rat. The test is classed as in vivo. The conditions noted are these: oral, about 10 mg/kg. From the text: Experimentally, prolongation of bleeding time in the rat is indicative of a beneficial antithrombotic effect.
The target of test [1] is T2, prostaglandin cyclooxygenase (Ovis aries, UniProt P05979).
T2 construct: Lyophilized sheep seminal vesicle microsomes are utilized as the prostaglandin-synthesizing enzyme preparation; from tissue; host or cells: sheep seminal vesicle microsomes (lyophilized)
T2 sequence (P05979 25-600): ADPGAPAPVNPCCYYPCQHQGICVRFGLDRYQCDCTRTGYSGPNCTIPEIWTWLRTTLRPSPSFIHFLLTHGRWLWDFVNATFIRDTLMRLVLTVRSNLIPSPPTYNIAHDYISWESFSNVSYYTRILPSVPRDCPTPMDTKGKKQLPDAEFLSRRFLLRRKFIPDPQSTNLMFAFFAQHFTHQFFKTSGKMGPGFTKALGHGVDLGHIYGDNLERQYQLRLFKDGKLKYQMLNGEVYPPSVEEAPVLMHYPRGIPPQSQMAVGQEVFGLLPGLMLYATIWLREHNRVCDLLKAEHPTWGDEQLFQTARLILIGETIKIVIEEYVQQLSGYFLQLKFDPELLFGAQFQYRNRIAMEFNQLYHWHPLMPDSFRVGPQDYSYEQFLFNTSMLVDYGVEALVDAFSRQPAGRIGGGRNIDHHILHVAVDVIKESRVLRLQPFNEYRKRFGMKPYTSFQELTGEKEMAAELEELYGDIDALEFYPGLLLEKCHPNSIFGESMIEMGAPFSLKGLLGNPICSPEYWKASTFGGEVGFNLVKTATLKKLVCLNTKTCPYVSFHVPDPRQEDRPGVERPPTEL
Nature of the test: in vitro effect on prostaglandin cyclooxygenase (14C-arachidonic acid to PGE2). The test is classed as biochemical, sheep. The conditions noted are these: read-out: IC50 for inhibition of cyclooxygenase. How it is done:
The in-vitro effect on prostaglandin cyclooxygenase is measured by a modification of the method of Takeguchi et al. described in Biochemistry 10, 2372 (1971); the testing procedure is as follows: Lyophilized sheep seminal vesicle microsomes are utilized as the prostaglandin-synthesizing enzyme preparation. The conversion of ^14 C-arachidonic acid to PGE2 is measured. Test compounds (dissolved in buffer, or if necessary, in a small amount of ethanol) are added to the incubation mixture. The prostaglandins are extracted and separated by thin-layer chromatography; the plates are scanned, the radioactive zones corresponding to PGE2 are transferred to liquid scintillation vials and counted for radioactivity. IC50 values for inhibition are determined graphically as the concentration of test compound causing a 50% reduction in the amount of PGE2 synthesized.

The target in test [2] is T3, prostacyclin (PGI2) synthetase (Bos taurus, UniProt Q29626).
T3 construct: crude PGI2 synthetase in the form of a microsomal fraction of bovine aorta; from tissue; host or cells: bovine aorta (microsomal fraction)
T3 sequence (Q29626 1-500): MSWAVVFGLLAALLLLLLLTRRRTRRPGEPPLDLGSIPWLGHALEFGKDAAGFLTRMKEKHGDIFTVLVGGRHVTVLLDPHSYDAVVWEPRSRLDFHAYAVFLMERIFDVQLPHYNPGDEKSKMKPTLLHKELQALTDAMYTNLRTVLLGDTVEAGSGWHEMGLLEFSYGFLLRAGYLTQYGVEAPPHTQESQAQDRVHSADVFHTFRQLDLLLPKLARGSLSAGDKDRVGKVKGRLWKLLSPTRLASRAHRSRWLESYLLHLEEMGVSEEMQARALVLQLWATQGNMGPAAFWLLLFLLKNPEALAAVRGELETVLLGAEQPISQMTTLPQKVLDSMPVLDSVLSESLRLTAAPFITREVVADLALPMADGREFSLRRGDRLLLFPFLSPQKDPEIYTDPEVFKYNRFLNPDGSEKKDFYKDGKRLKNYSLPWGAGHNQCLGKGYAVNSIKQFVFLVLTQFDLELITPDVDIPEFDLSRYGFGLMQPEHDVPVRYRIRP
Nature of the test: in vitro effect on prostacyclin (PGI2) synthetase (6-keto-PGF1α/PGE2 ratio). Type of test: biochemical, bovine. The settings on record: pH 7.5, 30 minutes at 37° C., read-out: IC50 for inhibition of prostacyclin synthetase. How it is done: The in-vitro effect on prostacyclin (PGI2) synthetase is measured analogous to the method of Sun et al., Prostaglandins 14, 1055 (1977);
The testing procedure is as follows:
^14 C-Arachiodonic acid is incubated with an enzyme mixture consisting of solubilized and partially purified prostaglandin cyclo-oxygenase from sheep seminal vesicles and crude PGI2 synthetase in the form of a microsomal fraction of bovine aorta.
Test compound (dissolved in buffer, or if necessary, in a small amount of ethanol) is placed in the incubation medium. The reaction mixture is incubated in 100 mM Tris HCl (pH 7.5) for 30 minutes at 37° C., acidified to pH 3 and extracted into ethyl acetate. The extract is evaporated to dryness; the residue is dissolved in acetone, spotted on thin-layer plates and chromatographed in a solvent system described by Sun et al.. The radioactive zones are located with a scanner; those corresponding to 6-keto-PGF1 α(a stable end product of prostacyclin biotransformation) and PGE2 are transferred to liquid scintillation vials and counted. The ratio of counts for 6-keto-PGF1 α/PGE2 is calculated for each concentration of test compound used. IC50 values for inhibition are determined graphically as the concentration of test compound at which the ratio of 6-keto-PGF1 α/PGE2 is reduced to 50% of the control value.

A further test deals with platelet aggregation. Nature of the test: inhibition of variously induced platelet aggregation. The test is classed as cell-based.
The subject of the next test is thrombocytopenia. Nature of the test: inhibition of variously induced thrombocytopenia. The conditions noted are these: in vivo.
The test system of another test is thromboxane B2. The experiment in a line: reduction of plasma levels of thromboxane in vivo in rats (ionophore A23187, radioimmunoassay of thromboxane B2). The settings on record: rat, oral dose 0.10 mg/kg. How it is done:
(§1) The inhibition of the synthesis and the reduction of plasma levels of thromboxane is determined in vivo on administration to rats in the following manner (as adapted from the procedures described by Tai et al. in Anal. Biochem. 87:343, 1978 and by Salmon in Prostaglandins 15:383, 1978):
(§2) Rats are dosed with vehicle or test drug and injected intravenously with ionophore A23187 (0.5 mg/kg) two hours later. Blood is collected for analysis 2 minutes after the inonophore injection. A single aliquot of each plasma sample is assayed for thromboxane B2 and another aliquot for 6-keto-PGF1 α, the stable metabolites of thromboxane A2 and prostacyclin (PGI2) respectively, by radioimmunoassay.

A further test has as its system prostacyclin. The experiment in a line: plasma level of prostacyclin in vivo in rats (ionophore A23187, radioimmunoassay of 6-keto-PGF1α). The conditions noted are these: rat, oral dose 0.10 mg/kg. How it is done:
as §1, §2

Here are results for 4 compounds from US4511573A, “3-Substituted-2-(heteroaryl) indoles” (Ciba-Geigy Corporation, priority 1983, dated 1985).

The structures appear in SMILES notation.

The term IC50 denotes the concentration that inhibits the measured activity by half. On to `O=C(O)CCCCCc1c(-c2cccnc2)[nH]c2ccccc12` [3-(5-carboxypentyl)-2-(3-pyridyl)indole], for which the 50% inhibitory concentration (IC50) at thromboxane synthetase is about 1.7 nM. Further, in the test on bleeding time, the “prolongation of bleeding time” value is “prolongs bleeding time”.
For the compound `Cn1c(-c2cccnc2)c(CCCCCC(=O)O)c2ccccc21` [3-(5-carboxypentyl)-1-methyl-2-(3-pyridyl)indole], the IC50 was 2.2 nM on thromboxane synthetase, about 100000 nM in test [1] and about 100000 nM in test [2]. For the same compound, the “inhibition of variously induced platelet aggregation” value in the test on platelet aggregation is listed as “inhibits”. The “inhibition of variously induced thrombocytopenia” value in the test on thrombocytopenia is reported as “inhibits”.
Turning to `O=C(O)CCCCCc1c(-c2cccnc2)[nH]c2ccc(Cl)cc12` [3-(5-carboxypentyl)-5-chloro-2-(3-pyridyl)indole], the IC50 on thromboxane synthetase is about 2 nM.
As to `Cn1c(-c2cccnc2)c(CCCCCC(=O)O)c2cc(Cl)ccc21` [3-(5-carboxypentyl)-5-chloro-1-methyl-2-(3-pyridyl)indole], the “decrease of plasma concentration of thromboxane B2” value in the test on thromboxane B2 is “over 50%”. Further, in the test on prostacyclin, the “increase in the plasma level of prostacyclin” value is “approximately 8 fold”.
